This is an account of results in PubChem BioAssay (NCI).

Assay in all cases: NCI tumour cell line growth inhibition, 48 h
In test [1] the test system is EKVX NSCLC.
Test [2] concerns OVCAR-8 ovarian.
The test system of test [3] is U251 CNS.
Test [4] has as its system HOP-92 NSCLC.
Test [5] has as its system SK-OV-3 ovarian.
Test [6] concerns HCT-116 colon.
Test [7] deals with RXF 393 renal.
In test [8] the test system is SF-268 CNS.
Test [9] relates to SNB-19 CNS.
The test system of test [10] is CAKI-1 renal.
For test [11], the system named is LOX IMVI melanoma.
For test [12], the system named is COLO 205 colon.
For test [13], the system named is ACHN renal.
Test [14] deals with A549 NSCLC.
Test [15] concerns HCT-15 colon.
Test [16] deals with OVCAR-3 ovarian.

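Compound exposure: 48 hours, 5 concentrations, 96-well plates. TGI denotes the concentration required for complete inhibition of growth.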

Regarding `COc1ccc2oc(C(=O)N3CC(CCl)c4ccc([N+](=O)[O-])cc43)cc2c1` (stereo not given), the TGI is above 100 µM in test [1]; above 100 µM in [2]; above 100 µM in test [3]; above 100 µM in test [4]; 48.7 µM in [5]; above 100 µM in test [6]. Also, the TGI was 34 µM in [7]; 53.8 µM in [8]; above 100 µM in test [9]; 45.6 µM in test [10]; above 100 µM in test [11]; above 100 µM in test [12]. Besides, the TGI in [13] was above 100 µM.
On to `N/N=C1\CCCc2c1no[n+]2[O-]`, for which the TGI in [1], in test [2], in [3], in test [14], in test [15] and in [5] was above 100 µM throughout. The TGI in test [6], in test [7], in test [8], in test [9], in test [16] and in [10] was above 100 µM in each case. Besides, the TGI in test [11], in test [12] and in test [13] was above 100 µM throughout.
Regarding `CN(C)c1nc(NN)c2c(-c3ccccc3)c(-c3ccccc3)oc2n1`, the TGI in [1], in test [2], in test [3], in test [4], in [14] and in [15] was above 100 µM throughout. In addition, the TGI in test [5], in test [6], in test [7], in test [8], in test [9] and in test [10] was above 100 µM throughout. For the same compound, the TGI in test [11], in test [12] and in test [13] was above 100 µM throughout.
Regarding `COc1ccc(O)c(C=NCCCN=Cc2cc(OC)ccc2O)c1`, the TGI was 83 µM in [1]; 69.9 µM in test [2]; 56.9 µM in test [3]; 65 µM in test [4]; above 100 µM in [14]; 93.1 µM in test [15]. Also, the TGI in test [6] is above 100 µM; in test [7], 95.2 µM; in [9], above 100 µM; in test [16] it was 37.3 µM; in [13], 74.4 µM.
For `COc1ccc([C@H]2CC(=O)NCCCCN2)cc1`, the TGI in test [1], in test [2], in test [3], in [4], in [14] and in [15] was above 100 µM in each case. In addition, the TGI in test [5], in [6], in [7], in [8], in test [9] and in test [10] was above 100 µM each time. The TGI in [12] and in test [13] was above 100 µM in each case.
For the compound `NC1=NNC2(C(N)=N1)c1ccccc1-c1ccccc12`, the TGI in test [1], in test [2], in [4], in test [14], in [15] and in test [5] was above 10 µM in each case. Moreover, the TGI in [6], in test [7], in [8], in test [9], in test [10] and in test [11] was above 10 µM throughout. Further, the TGI in test [12] and in test [13] was above 10 µM each time.
`CC(=O)O[C@H]1C(=O)[C@@]2(C)C(C(OC(=O)c3ccccc3)[C@]3(O)CC(OC(=O)C(O)C(NC(=O)c4ccc(C)cc4)c4ccccc4)C(C)=C1C3(C)C)[C@]1(OC(C)=O)CO[C@@H]1C[C@@H]2O` (stereo not given in full): the TGI in test [1] was above 25 µM; in [2], above 25 µM; in test [3], above 25 µM; in test [14], above 25 µM; in [15], 3.29 µM; in test [5], 0.0284 µM. The TGI is 0.411 µM in test [6]; 0.143 µM in [7]; above 25 µM in test [8]; 16.7 µM in test [9]; below 0.0025 µM in test [16]; 11.1 µM in [10]. Further, the TGI in [11] was 7.77 µM; in [12], 0.00736 µM; in test [13], above 25 µM.
As to `CN(/N=C/C=N/N(C)C1=NCCCCN1)C1=NCCCCN1`, the TGI in test [1], in test [2], in test [3], in test [14], in [15] and in test [5] was above 100 µM in each case. In addition, the TGI in test [6], in test [7], in test [8], in test [9], in [16] and in [10] was above 100 µM each time. Further, the TGI in test [11], in [12] and in [13] was above 100 µM in each case.
With `COc1ccc2c(c1)N=C1CSC(c3cc([N+](=O)[O-])ccc3Cl)N1C2` (stereo not given), the TGI is 47.1 µM in [1]; above 100 µM in test [2]; 71.2 µM in test [3]; 71.5 µM in test [4]; above 100 µM in [14]; 96.4 µM in [15]. Further, the TGI was 65.1 µM in test [5]; 47.4 µM in test [6]; 82 µM in test [7]; above 100 µM in [8]; above 100 µM in test [9]; 66.8 µM in [10]. In addition, the TGI is above 100 µM in test [11], 79.6 µM in test [12] and 54.1 µM in test [13].
`COC(=O)C(Cc1ccccc1)OC(=O)C(N)CC(=O)O` (stereo not given): the TGI in test [1], in [2], in test [4], in test [14], in test [15] and in [5] was above 100 µM throughout. The TGI in test [6], in [7], in test [8], in test [9], in test [16] and in test [10] was above 100 µM each time. In addition, the TGI in test [12] and in [13] was above 100 µM in each case.
With `N#CC1=C(N)OC(c2ccc([N+](=O)[O-])cc2)C1(C#N)C#N` (stereo not given), the TGI in test [1] is 39.6 µM; in [2], 32.3 µM; in [3], above 78.2 µM; in test [4], 21.9 µM; in test [14] it was above 93.3 µM; in test [15] it was 27.4 µM. Also, the TGI in test [5] is above 100 µM; in [6] it was 34.8 µM; in test [7], 21 µM; in test [8] it was above 54.3 µM; in test [9], above 53.2 µM; in test [10], 13 µM. For the same compound, the TGI in test [11] is 21.6 µM; in [12], 16.6 µM; in test [13], 23.8 µM.
Take `CCOC(=O)c1c(-c2ccc(OC)cc2)c(C#N)c(=S)n(C2OC(CO)C(O)C(O)C2O)c1-c1ccccc1` (stereo not given): the TGI in test [3] is above 100 µM; in test [4], 32.8 µM; in test [14] it was above 100 µM; in test [15] it was above 100 µM; in test [5], above 100 µM; in test [6] it was 85.3 µM. The TGI is 75.7 µM in test [7]; above 100 µM in test [8]; above 100 µM in test [9]; 73 µM in test [16]; above 100 µM in [10]; above 100 µM in [11]. The TGI in test [12] and in test [13] was above 100 µM throughout.
Consider `O=C(/C=C/c1ccco1)CC(=O)/C=C/c1ccco1`, for which the TGI is above 31.6 µM in [1]; above 31.6 µM in [2]; 19.7 µM in test [3]; 71.7 µM in test [4]; 24.5 µM in [14]; 20.2 µM in [15]. Moreover, the TGI is 17.4 µM in test [6]; 10.6 µM in test [7]; 31.4 µM in test [9]; 26.2 µM in test [10]; 13.8 µM in test [11]; 21 µM in test [13].
Turning to `O=C1CC2(CCNCC2)C(=O)N1N1CCCC1`, the TGI in test [1], in test [2], in test [3], in [14], in test [15] and in [5] was above 100 µM throughout. For the same compound, the TGI in [6], in test [7], in test [9], in [16], in test [10] and in test [11] was above 100 µM in each case. Besides, the TGI in test [12] and in test [13] was above 100 µM each time.
Turning to `O=C(Cc1ccc(Cl)c(Cl)c1)N(CCc1ccc(Cl)c(Cl)c1)CCN1CCCC1`, the TGI in test [1] is 3.78 µM; in test [2] it was 3.82 µM; in [3], 3.15 µM; in [4], 4.74 µM; in [14], 4.25 µM; in test [15], 3.7 µM. Further, the TGI came out at 7.49 µM in test [5]; 3.09 µM in test [6]; 3.34 µM in test [7]; 5.5 µM in [8]; 4.9 µM in [9]; 5.47 µM in test [16]. Also, the TGI in test [10] worked out at 3.1 µM; in test [12], 3.38 µM; in test [13] it was 3.28 µM.
In the case of `CN(C1=NCCO1)c1cccc2c1CCCC2`, the TGI in test [1], in [2], in test [3], in test [14], in test [15] and in test [5] was above 10 µM each time. For the same compound, the TGI in test [6] is 8.95 µM; in [7] it was above 10 µM; in [8] it was above 10 µM; in [9], above 10 µM; in [10], above 10 µM; in [11], 5.27 µM. Besides, the TGI in test [12] was 3.4 µM; in [13] it was 8.09 µM.
In the case of `c1ccc2c(c1)Nc1nc3nonc3nc1N2`, the TGI in [1], in test [2], in [3], in test [4], in test [14] and in test [15] was above 100 µM in each case. Moreover, the TGI in test [5], in test [6], in [7], in [8], in [9] and in test [10] was above 100 µM in each case. For the same compound, the TGI in [11], in test [12] and in test [13] was above 100 µM each time.
In the case of `Cc1n[nH]c(=O)n1/N=C/c1c[nH]c2ccccc12`, the TGI in test [1], in test [2], in test [3], in [4], in test [14] and in test [15] was above 100 µM each time. Besides, the TGI in [5] was above 100 µM; in test [6] it was above 100 µM; in test [7], 82.3 µM; in test [8], above 100 µM; in test [9], above 100 µM; in [16], above 100 µM. The TGI in test [10], in test [12] and in test [13] was above 100 µM throughout.
With `COP1(=O)Oc2ccccc2C(=O)C(C(F)(F)F)(C(F)(F)F)O1` (stereo not given), the TGI in [1], in [2], in test [3], in test [4], in test [14] and in test [15] was above 100 µM throughout. The TGI in test [5], in test [6], in test [7], in test [8], in [9] and in test [10] was above 100 µM in each case. For the same compound, the TGI in test [11], in test [12] and in test [13] was above 100 µM each time.
